{
  "source": "ChEMBL document CHEMBL1201862",
  "about": "“PubChem BioAssay data set” (2004)",
  "key": {"[1]": {"test": "cytotoxicity toward NIH3T3 fibroblasts, dose response, counter-screen, cell-based, ATP luminescence, mouse fibroblasts (AID 2010);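 further: cells exposed to compound for about 90 hours before reading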", "type": "functional"}, "Cryptococcus neoformans [2]": {"system": "Cryptococcus neoformans", "test": "Cryptococcus growth inhibition by alamar blue – cell lysis, cherry-picks, replicate tests, mechanism study for C. neoformans antifungal project, dose response (AID 686999)", "type": "functional, organism-based"}, "[3]": {"test": "Luminescence Cell-Based Dose Response HTS to Identify Inhibitors of 5'UTR Stem-Loop Driven Prion Protein mRNA Translation in H4 Neuroglioblastoma Cells. [Related pubchem assays: 1827 (Project Summary), 1813 (Primary HTS)]", "type": "functional"}, "[4]": {"target": "T1, Ubiquitin-conjugating enzyme E2 N (Homo sapiens, UniProt P61088)", "T1 sequence (P61088 whole entry)": "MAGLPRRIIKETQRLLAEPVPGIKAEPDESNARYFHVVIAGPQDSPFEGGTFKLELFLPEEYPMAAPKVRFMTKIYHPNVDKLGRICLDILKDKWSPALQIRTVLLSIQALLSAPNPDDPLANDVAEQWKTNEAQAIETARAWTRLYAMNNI", "type": "functional"}, "[5]": {"target": "T2, Type-1 angiotensin II receptor (Homo sapiens, UniProt P30556)", "T2 sequence (P30556 whole entry)": "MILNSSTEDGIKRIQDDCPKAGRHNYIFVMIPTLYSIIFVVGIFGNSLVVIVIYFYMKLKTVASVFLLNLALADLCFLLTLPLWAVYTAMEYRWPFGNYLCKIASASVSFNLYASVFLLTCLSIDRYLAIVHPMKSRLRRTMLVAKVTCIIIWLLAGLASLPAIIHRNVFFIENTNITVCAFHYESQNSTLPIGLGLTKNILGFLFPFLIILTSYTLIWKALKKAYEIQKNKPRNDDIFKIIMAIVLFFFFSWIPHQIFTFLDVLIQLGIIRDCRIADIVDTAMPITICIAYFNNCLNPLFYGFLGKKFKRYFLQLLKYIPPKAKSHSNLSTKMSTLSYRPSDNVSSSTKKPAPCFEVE", "test": "AT1 receptor antagonists, dose response, selectivity assay for APJ receptor antagonist project, cell-based, uHTS hits (AID 463214);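 further: antagonist potency against angiotensin II stimulated AT1 response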", "type": "functional"}, "Cryptococcus neoformans [6]": {"system": "Cryptococcus neoformans", "test": "PubChem AID 686997", "type": "functional, organism-based"}, "Genome polyprotein": {"target": "Genome polyprotein (dengue virus type 2, UniProt P29990)", "sequence (P29990 2492-3391 limits assumed)": "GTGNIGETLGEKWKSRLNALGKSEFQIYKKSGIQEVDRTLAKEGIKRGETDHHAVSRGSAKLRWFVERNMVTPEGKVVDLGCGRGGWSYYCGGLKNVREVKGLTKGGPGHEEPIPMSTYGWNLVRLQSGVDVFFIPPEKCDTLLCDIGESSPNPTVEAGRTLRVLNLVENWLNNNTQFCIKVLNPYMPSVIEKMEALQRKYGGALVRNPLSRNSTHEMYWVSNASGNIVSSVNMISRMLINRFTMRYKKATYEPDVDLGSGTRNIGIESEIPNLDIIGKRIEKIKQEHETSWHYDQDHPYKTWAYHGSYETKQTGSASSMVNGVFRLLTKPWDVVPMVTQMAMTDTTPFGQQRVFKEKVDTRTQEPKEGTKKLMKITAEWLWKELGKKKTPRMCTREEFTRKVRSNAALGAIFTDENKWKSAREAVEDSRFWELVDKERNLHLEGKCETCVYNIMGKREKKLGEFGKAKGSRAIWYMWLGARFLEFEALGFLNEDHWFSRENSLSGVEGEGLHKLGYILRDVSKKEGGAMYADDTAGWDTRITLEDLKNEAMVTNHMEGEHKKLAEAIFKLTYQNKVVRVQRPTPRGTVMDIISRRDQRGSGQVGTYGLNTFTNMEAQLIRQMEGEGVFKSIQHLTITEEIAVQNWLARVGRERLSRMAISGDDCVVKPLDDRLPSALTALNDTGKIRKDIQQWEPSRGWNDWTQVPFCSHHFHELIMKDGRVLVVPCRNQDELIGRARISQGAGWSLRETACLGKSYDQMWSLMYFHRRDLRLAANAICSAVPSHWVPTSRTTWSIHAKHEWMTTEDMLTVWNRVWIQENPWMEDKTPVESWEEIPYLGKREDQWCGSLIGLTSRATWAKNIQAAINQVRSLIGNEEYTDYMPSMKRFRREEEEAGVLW", "test": "Dengue-2 NS5 methyltransferase inhibitors, primary screen, biochemical, confirmation dose response (AID 588689)", "type": "functional"}, "[7]": {"target": "T3, Mannose-6-phosphate isomerase (Homo sapiens, UniProt P34949)", "T3 sequence (P34949 whole entry)": "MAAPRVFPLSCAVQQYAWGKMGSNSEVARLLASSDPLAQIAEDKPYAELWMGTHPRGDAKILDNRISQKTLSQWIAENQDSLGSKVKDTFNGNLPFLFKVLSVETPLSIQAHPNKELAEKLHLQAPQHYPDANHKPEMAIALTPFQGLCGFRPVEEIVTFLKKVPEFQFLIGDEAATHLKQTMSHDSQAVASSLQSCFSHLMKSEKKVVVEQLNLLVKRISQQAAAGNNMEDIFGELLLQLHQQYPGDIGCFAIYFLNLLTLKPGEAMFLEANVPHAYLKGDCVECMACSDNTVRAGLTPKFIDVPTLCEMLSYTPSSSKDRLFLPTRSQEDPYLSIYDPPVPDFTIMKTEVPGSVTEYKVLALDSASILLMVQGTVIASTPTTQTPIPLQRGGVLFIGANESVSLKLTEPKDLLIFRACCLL", "test": "human PMI inhibitors, high substrate, primary screen, biochemical, fluorescence intensity, high mannose 6-phosphate (AID 1220)"}, "[8]": {"test": "THP-1 cell cytotoxicity, dose response, cytotoxicity control for Vif-APOBEC3G degradation inhibitor project, THP-1 cells (AID 1117359)", "type": "functional", "conditions": "Human immunodeficiency virus 1, THP-1"}, "[9]": {"test": "NIH-3T3 fibroblast cytotoxicity, dose response, cytotoxicity control, cell-based, fluorescence, Alamar Blue, secondary assay (AID 2327);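 further: NIH-3T3 mouse fibroblasts cultured with fluconazole at 8 µg/mL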", "type": "functional"}, "[10]": {"target": "T4, Sentrin-specific protease 7 (Homo sapiens, UniProt Q9BQF6)", "T4 sequence (Q9BQF6 whole entry)": "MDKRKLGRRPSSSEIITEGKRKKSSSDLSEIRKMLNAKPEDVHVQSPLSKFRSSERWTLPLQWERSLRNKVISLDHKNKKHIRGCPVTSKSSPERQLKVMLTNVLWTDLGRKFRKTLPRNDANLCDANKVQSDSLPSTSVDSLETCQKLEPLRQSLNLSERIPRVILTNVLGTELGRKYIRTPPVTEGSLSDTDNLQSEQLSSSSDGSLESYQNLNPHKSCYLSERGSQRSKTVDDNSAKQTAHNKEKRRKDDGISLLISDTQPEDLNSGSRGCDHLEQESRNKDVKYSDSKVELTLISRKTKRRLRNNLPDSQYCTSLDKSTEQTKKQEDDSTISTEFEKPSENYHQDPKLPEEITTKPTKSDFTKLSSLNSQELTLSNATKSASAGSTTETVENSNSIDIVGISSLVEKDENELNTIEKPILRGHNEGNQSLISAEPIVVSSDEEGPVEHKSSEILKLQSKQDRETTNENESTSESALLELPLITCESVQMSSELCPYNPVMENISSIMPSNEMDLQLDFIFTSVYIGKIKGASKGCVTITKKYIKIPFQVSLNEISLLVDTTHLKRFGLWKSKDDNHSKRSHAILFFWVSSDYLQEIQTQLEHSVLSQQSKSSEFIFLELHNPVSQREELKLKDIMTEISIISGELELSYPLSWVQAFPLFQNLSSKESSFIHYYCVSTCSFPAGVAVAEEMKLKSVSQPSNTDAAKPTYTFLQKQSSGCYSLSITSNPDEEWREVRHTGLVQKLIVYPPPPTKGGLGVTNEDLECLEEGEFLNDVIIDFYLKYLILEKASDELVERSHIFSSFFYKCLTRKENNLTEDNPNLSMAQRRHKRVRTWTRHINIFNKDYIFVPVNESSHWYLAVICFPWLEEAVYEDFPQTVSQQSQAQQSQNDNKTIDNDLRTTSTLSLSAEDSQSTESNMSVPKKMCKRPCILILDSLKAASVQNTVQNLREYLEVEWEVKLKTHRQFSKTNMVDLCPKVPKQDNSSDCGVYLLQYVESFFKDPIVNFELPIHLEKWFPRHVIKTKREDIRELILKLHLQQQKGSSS", "type": "functional"}, "Caspase-3": {"target": "T5, Caspase-3 (Homo sapiens, UniProt P42574)", "T5 sequence (P42574 whole entry)": "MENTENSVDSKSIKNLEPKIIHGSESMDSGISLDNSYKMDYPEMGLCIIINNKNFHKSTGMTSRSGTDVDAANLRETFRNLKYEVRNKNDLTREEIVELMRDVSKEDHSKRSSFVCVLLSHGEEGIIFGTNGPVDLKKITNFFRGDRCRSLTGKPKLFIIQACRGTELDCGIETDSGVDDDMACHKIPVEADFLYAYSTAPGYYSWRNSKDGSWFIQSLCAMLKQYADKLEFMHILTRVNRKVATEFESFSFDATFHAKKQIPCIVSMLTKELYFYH", "type": "functional"}, "[11]": {"target": "Peroxisome proliferator-activated receptor gamma/Nuclear receptor corepressor 2 (Homo sapiens, UniProt P37231+Q9Y618)", "sequence (P37231 whole entry)": "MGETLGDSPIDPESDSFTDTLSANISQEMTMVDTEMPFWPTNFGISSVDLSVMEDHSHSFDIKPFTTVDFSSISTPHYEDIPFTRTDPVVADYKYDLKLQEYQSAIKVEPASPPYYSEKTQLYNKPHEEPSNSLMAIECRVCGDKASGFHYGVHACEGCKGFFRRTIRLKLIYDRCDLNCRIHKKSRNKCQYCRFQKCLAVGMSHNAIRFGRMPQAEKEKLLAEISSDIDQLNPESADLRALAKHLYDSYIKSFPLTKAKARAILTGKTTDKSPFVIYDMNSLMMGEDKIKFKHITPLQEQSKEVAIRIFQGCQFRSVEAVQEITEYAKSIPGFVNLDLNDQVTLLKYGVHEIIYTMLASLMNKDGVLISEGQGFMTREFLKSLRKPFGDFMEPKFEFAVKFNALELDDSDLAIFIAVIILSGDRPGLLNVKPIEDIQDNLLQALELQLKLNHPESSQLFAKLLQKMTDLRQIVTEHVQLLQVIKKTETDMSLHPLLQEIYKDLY", "sequence (Q9Y618 whole entry)": "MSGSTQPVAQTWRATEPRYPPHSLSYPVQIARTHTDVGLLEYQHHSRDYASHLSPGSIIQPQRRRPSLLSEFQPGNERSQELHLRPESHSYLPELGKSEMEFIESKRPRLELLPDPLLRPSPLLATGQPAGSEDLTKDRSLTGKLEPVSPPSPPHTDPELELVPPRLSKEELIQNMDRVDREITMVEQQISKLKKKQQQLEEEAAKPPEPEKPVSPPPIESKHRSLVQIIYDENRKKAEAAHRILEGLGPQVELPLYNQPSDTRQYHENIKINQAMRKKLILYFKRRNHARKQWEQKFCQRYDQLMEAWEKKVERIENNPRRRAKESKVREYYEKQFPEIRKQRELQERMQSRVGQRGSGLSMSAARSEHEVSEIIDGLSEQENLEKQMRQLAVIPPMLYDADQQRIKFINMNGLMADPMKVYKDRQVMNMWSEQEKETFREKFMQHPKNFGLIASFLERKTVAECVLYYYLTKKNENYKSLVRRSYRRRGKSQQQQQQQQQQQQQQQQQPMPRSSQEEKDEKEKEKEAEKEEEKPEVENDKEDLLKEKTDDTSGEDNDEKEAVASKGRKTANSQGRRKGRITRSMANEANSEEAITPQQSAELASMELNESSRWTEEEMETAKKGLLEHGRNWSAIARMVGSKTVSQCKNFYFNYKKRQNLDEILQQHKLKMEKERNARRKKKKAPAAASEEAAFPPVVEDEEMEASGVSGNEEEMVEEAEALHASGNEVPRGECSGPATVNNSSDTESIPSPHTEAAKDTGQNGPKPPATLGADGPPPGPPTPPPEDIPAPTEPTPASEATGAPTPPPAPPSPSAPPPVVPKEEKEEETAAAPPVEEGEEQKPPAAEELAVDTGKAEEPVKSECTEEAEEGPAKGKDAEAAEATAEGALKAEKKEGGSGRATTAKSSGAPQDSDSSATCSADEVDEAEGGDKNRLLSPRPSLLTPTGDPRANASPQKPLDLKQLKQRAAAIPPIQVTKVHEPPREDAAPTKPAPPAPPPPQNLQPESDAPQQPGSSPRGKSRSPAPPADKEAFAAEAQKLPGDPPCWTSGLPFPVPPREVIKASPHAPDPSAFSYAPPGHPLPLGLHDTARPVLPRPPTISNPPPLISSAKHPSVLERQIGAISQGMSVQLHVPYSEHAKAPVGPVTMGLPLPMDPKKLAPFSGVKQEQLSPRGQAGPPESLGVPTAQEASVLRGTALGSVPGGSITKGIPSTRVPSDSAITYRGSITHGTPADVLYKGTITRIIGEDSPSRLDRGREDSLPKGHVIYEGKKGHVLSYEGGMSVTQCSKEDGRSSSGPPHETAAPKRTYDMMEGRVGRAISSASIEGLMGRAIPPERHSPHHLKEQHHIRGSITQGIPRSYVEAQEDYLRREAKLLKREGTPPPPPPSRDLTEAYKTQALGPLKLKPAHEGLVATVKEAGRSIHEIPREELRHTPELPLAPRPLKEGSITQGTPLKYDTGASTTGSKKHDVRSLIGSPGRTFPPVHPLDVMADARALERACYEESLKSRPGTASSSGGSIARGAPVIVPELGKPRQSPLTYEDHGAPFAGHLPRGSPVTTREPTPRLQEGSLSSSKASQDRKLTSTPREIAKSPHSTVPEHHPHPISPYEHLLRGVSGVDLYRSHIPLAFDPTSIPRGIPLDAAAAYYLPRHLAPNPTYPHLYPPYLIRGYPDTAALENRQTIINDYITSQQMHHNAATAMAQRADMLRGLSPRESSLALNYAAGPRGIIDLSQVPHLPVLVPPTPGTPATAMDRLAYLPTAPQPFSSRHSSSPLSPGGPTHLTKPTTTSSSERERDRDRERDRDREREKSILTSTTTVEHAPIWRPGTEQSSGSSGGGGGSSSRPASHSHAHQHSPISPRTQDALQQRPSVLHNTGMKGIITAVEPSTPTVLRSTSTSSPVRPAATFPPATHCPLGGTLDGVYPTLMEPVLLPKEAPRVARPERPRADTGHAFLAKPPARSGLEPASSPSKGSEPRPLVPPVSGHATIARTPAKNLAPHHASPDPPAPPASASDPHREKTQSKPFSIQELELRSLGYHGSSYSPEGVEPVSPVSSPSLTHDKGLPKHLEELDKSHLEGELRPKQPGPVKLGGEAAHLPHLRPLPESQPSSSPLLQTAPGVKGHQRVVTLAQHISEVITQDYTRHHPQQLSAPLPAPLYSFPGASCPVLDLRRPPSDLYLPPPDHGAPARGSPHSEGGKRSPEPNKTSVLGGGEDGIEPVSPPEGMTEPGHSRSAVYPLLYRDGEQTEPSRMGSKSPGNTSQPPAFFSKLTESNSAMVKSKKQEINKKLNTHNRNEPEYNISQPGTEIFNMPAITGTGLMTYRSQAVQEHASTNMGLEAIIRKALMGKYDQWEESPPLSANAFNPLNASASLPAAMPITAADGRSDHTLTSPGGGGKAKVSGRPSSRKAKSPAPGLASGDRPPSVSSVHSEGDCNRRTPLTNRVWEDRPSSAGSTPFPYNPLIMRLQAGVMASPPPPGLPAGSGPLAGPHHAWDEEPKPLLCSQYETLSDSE", "type": "functional"}},
  "note": "Activity calls are given as the source filed them.",
  "data": [
    {"compound": "CCCCCCCCCCOC(=O)Cn1c(COc2ccccc2)[n+](C)c2ccccc21", "values": [
      {"measurement": "EC50", "setting": "[1]", "result": "> 60 µM (not active)"}
    ]},
    {"compound": "CCOC(=O)c1c(-c2ccc(-c3ccccc3)cc2)csc1NC(=O)CNCCN(C)C", "values": [
      {"measurement": "AC50", "setting": "Cryptococcus neoformans [2]", "result": "14.7 µM (active)"},
      {"measurement": "EC50", "setting": "[3]", "result": "13.7 µM (active)"},
      {"measurement": "IC50", "setting": "[4]", "result": "10.1 µM (active)"},
      {"measurement": "IC50", "setting": "[5]", "result": "9.33 µM (active)"},
      {"measurement": "AC50", "setting": "Cryptococcus neoformans [6]", "result": "20.9 µM (active)"}
    ]},
    {"compound": "COc1cc(-c2nnc(SCc3cc(=O)oc4cc(O)c(O)cc34)o2)cc(OC)c1OC", "values": [
      {"measurement": "IC50", "setting": "Genome polyprotein", "result": "> 100 µM (active)"},
      {"measurement": "IC50", "setting": "[7]", "result": "> 50 µM (not active)"},
      {"measurement": "CC50", "setting": "[8]", "result": "> 40 µM (active)"},
      {"measurement": "EC50", "setting": "[9]", "result": "> 150 µM (inactive)"}
    ]},
    {"compound": "N#Cc1c(NC(=O)c2ccc(Br)o2)n(-c2ccccc2)c2nc3ccccc3nc12", "values": [
      {"measurement": "IC50", "setting": "[10]", "result": "3.69 µM (active)"},
      {"measurement": "IC50", "setting": "Caspase-3", "result": "29.6 µM (active)"},
      {"measurement": "IC50", "setting": "[11]", "result": "5.08 µM (active)"}
    ]}
  ]
}
